Reference: patent US8975235B2, “Lysophosphatidic acid receptor antagonists” (InterMune, Inc., priority 2011, dated 2015)

What follows are molecules tested against Human LPA1 (Homo sapiens, UniProt Q92633) (assay: Beta-Arrestin based assay for human LPA1R antagonists (PathHunter)). Conditions: CHO cells stably expressing ProLink tagged human LPA1R; agonist LPA 0.5 micromolar.
Format: cell-based
Design: host or cells: CHO
Protocol: Beta-Arrestin Based Assays for Human LPA1R Antagonists and Agonists
A CHO cell line stably expressing the ProLink™ tagged human LPA1R was obtained from DiscoverX Inc, Fremont, Calif. In this system, β-Arrestin was fused to an N-terminal deletion mutant of β-galactosidase (termed the enzyme acceptor or EA), the human LPA1R was fused to a smaller (42 amino acids) weakly complementing fragment termed ProLink™. […] Cell handling and assays were performed according to protocols specified in the PathHunter® assays kits (DiscoverX, Fremont, Calif.). Assays were performed in quadruplicate in white 384 well plates. End point luminescence data were plotted and fit to a 4 parameter logistic function to obtain IC50 values. For antagonist assays, an […] concentration of agonist (LPA) equal to 0.5 micromolar was used.

Human LPA1, sequence (Q92633 whole entry): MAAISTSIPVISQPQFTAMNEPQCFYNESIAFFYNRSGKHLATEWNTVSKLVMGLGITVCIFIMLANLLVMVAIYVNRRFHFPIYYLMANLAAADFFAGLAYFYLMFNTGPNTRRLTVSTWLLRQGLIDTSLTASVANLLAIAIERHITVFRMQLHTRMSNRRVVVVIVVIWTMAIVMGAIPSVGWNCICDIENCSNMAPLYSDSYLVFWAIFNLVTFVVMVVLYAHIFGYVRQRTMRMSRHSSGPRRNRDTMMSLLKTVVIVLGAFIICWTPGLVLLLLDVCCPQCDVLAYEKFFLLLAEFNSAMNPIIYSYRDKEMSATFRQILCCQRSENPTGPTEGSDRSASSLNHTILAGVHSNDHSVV

Compared with Cc1nsc(-c2ccc(-c3ccc(C4(C(=O)O)CC4)cc3)cc2)c1NC(=O)OC(C)C [Compound 95], Cc1nsc(-c2ccc(-c3ccc(C4(C(=O)O)CC4)cc3)cc2)c1NC(=O)O[C@H](C)C1=C(Cl)CCC1 (single isomer, unassigned) [Compound 216] is lower in EC50: > 500 nM for the first, < 50 nM for the second. The second is the more potent here.

Compared with C[C@@H](OC(=O)Nc1c(-c2ccc(-c3ccc(CC(=O)O)cc3)cc2)oc2ccccc12)c1ccccc1Cl [Compound 31], Cc1ccc2c(NC(=O)O[C@H](C)c3ccccc3Cl)c(-c3ccc(-c4ccc(C5(C(=O)O)CC5)cc4)cc3)oc2c1 [Compound 52] is higher in EC50: 50 to 500 nM for the first, > 500 nM for the second.

Cc1nsc(-c2ccc(-c3ccc(C4(C(=O)O)CC4)cc3)cc2)c1NC(=O)OCc1ccc(Cl)cc1 [Compound 100] and Cc1nsc(-c2ccc(-c3ccc(C4(C(=O)O)CC4)cc3)cc2)c1NC(=O)OCc1cccc(F)c1Cl [Compound 103] fall in the same range of EC50: 50 to 500 nM for the first, 50 to 500 nM for the second.

Going from Cn1ncc(-c2ccc(-c3ccc(C4(C(=O)O)CC4)cc3)cc2)c1NC(=O)OCc1ccccc1 [Compound 172] to Cn1cnc(-c2ccc(-c3ccc(C4(C(=O)O)CC4)cc3)cc2)c1NC(=O)OCc1ccccc1 [Compound 167], the EC50 rises from < 50 nM to > 500 nM. The first is the more potent here.

Cc1cc(-c2ccc(-c3snc(C)c3NC(=O)O[C@H](C)c3ccccc3Cl)cc2)ccc1CC(=O)O [Compound 118] and Cc1nsc(-c2ccc(-c3ccc(CC(=O)O)c(F)c3)cc2)c1NC(=O)O[C@H](C)c1ccccc1Cl [Compound 196] fall in the same range of EC50: 50 to 500 nM for the first, 50 to 500 nM for the second.

C[C@@H](OC(=O)Nc1c(-c2ccc(-c3ccc(C4(C(=O)O)CC4)cc3)cc2)ncn1C)c1ccccc1Cl [Compound 168] and C[C@@H](OC(=O)Nc1nonc1-c1ccc(-c2ccc(C3(C(=O)O)CC3)cc2)cc1)c1ccccc1Cl [Compound 177] cannot be ordered by EC50: < 50 nM for the first, < 50 nM for the second.

First: Cc1noc2cc(-c3ccc(CC(=O)O)cc3)cc(NC(=O)O[C@H](C)c3ccccc3Cl)c12 [Compound 77]
Second: Cc1noc(C#Cc2ccc3cc(CC(=O)O)ccc3c2)c1NC(=O)O[C@H](C)c1ccccc1Cl [Compound 129]
The EC50 of the first is higher: > 500 nM for the first, 50 to 500 nM for the second. The second is the more potent here.

First: Cc1nsc(-c2ccc(-c3ccc(C4(C(=O)O)CC4)cc3)cc2)c1NC(=O)OCc1cccc(Cl)c1Cl [Compound 101]
Second: Cc1nsc(-c2ccc(-c3ccc(C4(C(=O)O)CC4)cc3)cc2)c1NC(=O)OCc1ccc(F)cc1Cl [Compound 102]
The EC50 of the first is higher: > 500 nM for the first, 50 to 500 nM for the second.

Cc1nsc(-c2ccc(-c3ccc(C4(C(=O)O)CC4)c(Cl)c3)cc2)c1NC(=O)O[C@H](C)c1ccccc1Cl [Compound 191] and Cc1nsc(-c2ccc(-c3ccc(C4(C(=O)O)CC4)cc3)cc2F)c1NC(=O)O[C@H](C)c1ccccc1Cl [Compound 119] cannot be ordered by EC50: < 50 nM for the first, < 50 nM for the second.

O=C(Nc1ncsc1-c1ccc(-c2ccc(C3(C(=O)O)CC3)cc2)cc1)OCc1ccccc1 [Compound 111] and O=C(Nc1ocnc1-c1ccc(-c2ccc(C3(C(=O)O)CC3)cc2)cc1)OCc1ccccc1 [Compound 148] cannot be ordered by EC50: > 500 nM for the first, > 500 nM for the second.

First: Cc1cc(-c2snc(C)c2NC(=O)O[C@H](C)c2ccccc2Cl)c(C)cc1-c1ccc(C2(C(=O)O)CC2)cc1 [Compound 123]
Second: Cc1cc(-c2snc(C)c2NC(=O)O[C@H](C)c2ccccc2Cl)c(F)cc1-c1ccc(C2(C(=O)O)CC2)cc1 [Compound 121]
The EC50 of the first is higher: 50 to 500 nM for the first, < 50 nM for the second. The second is the more potent here.

Cc1cc(-c2snc(C)c2NC(=O)O[C@H](C)c2ccccc2Cl)ccc1-c1ccc(C2(C(=O)O)CC2)cc1 [Compound 116] and Cc1cc(-c2ccc(C3(C(=O)O)CC3)cc2)ccc1-c1snc(C)c1NC(=O)O[C@H](C)c1ccccc1Cl [Compound 115] cannot be ordered by EC50: < 50 nM for the first, < 50 nM for the second.

O=C(O)Cc1ccc(C2CCN(C(=O)[C@@H](Cc3ccccc3)NC(=O)OCc3ccccc3)CC2)cc1 [Compound 257] and O=C(O)Cc1ccc(N2CCN(C(=O)[C@H](NC(=O)OCc3ccccc3)c3ccccc3)CC2)cc1 [Compound 272] cannot be ordered by EC50: > 500 nM for the first, > 500 nM for the second.

Compared with Cc1noc(-c2ccc(-c3ccc4c(c3)CCCC4C(=O)O)cc2)c1NC(=O)O[C@H](C)c1ccccc1Cl (some centres unmarked) [Compound 24], Cc1noc(-c2ccc(-c3ccc4c(c3)CCC4C(=O)O)cc2)c1NC(=O)O[C@H](C)c1ccccc1Cl (some centres unmarked) [Compound 27] is lower in EC50: 50 to 500 nM for the first, < 50 nM for the second. The second is the more potent here.

C[C@@H](OC(=O)Nc1nncn1-c1ccc(-c2ccc(C3(C(=O)O)CC3)cc2)cc1)c1ccccc1Cl [Compound 159] and C[C@@H](OC(=O)Nc1ccn(-c2ccc(-c3ccc(C4(C(=O)O)CC4)cc3)cc2)n1)c1ccccc1 [Compound 163] cannot be ordered by EC50: > 500 nM for the first, > 500 nM for the second.

Compared with CC(OC(=O)Nc1n[nH]nc1-c1ccc(-c2ccc(C3(C(=O)O)CC3)cc2)cc1)c1ccccc1 (centres unmarked) [Compound 223], C[C@@H](OC(=O)Nc1nsnc1-c1ccc(-c2ccc(C3(C(=O)O)CC3)cc2)cc1)c1ccccc1 [Compound 211] is lower in EC50: > 500 nM for the first, 50 to 500 nM for the second. The second is the more potent here.

CCCC(=O)Nc1ccnc(-c2ccc(-c3ccc(CC(=O)O)cc3)cc2)c1 [reference compound] and CCC(=O)Nc1ccnc(-c2ccc(-c3ccc(CC(=O)O)cc3)cc2)c1 [reference compound] cannot be ordered by EC50: > 500 nM for the first, > 500 nM for the second.

Cc1nsc(-c2ccc3c(c2)CCc2cc(C4(C(=O)O)CC4)ccc2-3)c1NC(=O)O[C@H](C)c1ccccc1 [Compound 245] and Cc1nsc(-c2ccc(-c3ccc(C4(C(=O)O)CC4)cc3)c(Cl)c2)c1NC(=O)O[C@H](C)c1ccccc1 [Compound 188] cannot be ordered by EC50: < 50 nM for the first, < 50 nM for the second.

First: Cc1cc(CC(=O)O)ccc1-c1ccc(-c2snc(C)c2NC(=O)O[C@H](C)c2ccccc2Cl)cc1 [Compound 193]
Second: Cc1nsc(-c2ccc(-c3ccc4c(ccn4CC(=O)O)c3)cc2)c1NC(=O)O[C@H](C)c1ccccc1Cl [Compound 104]
The EC50 of the first is lower: 50 to 500 nM for the first, > 500 nM for the second.

Cc1nsc(-c2ccc(-c3ccc(C4(C(=O)O)CCOCC4)cc3)cc2)c1NC(=O)O[C@H](C)c1ccccc1 [Compound 243] and Cc1nsc(-c2ccc(-c3ccc(C4(C(=O)O)CCC4)cc3)cc2)c1NC(=O)O[C@H](C)c1ccccc1 [Compound 127] fall in the same range of EC50: 50 to 500 nM for the first, 50 to 500 nM for the second.

First: CCOC(=O)Cc1ccc(-c2ccc(-c3onc(C)c3NS(=O)(=O)c3ccccc3)cc2)cc1 [Compound 18]
Second: Cc1noc(-c2ccc(-c3ccc(C4(C(=O)O)CN(S(C)(=O)=O)C4)cc3)cc2)c1NC(=O)O[C@H](C)c1ccccc1Cl [Compound 38]
The EC50 of the first is higher: > 500 nM for the first, < 50 nM for the second. The second is the more potent here.

First: O=C(O)Cc1ccc(N2CCN(C(=O)CCCNC(=O)OCc3ccccc3)CC2)cc1 [Compound 270]
Second: Cc1nnn(-c2ccc(-c3ccc(C4(C(=O)O)CC4)cc3)cc2)c1NC(=O)OCc1ccccc1 [Compound 157]
The EC50 of the first is higher: > 500 nM for the first, 50 to 500 nM for the second.

First: C[C@@H](OC(=O)Nc1nonc1-c1ccc(-c2ccc(C3(C(=O)O)CC3)cc2)cc1)c1ccccc1 [Compound 176]
Second: C[C@@H](OC(=O)Nc1ncoc1-c1ccc(-c2ccc(C3(C(=O)O)CC3)cc2)cc1)c1ccccc1 [Compound 143]
The EC50 of the first is lower: < 50 nM for the first, 50 to 500 nM for the second. The first is the more potent here.

Cc1noc(-c2ccc(-c3ccc4c(c3)CCCC4C(=O)O)cc2)c1NC(=O)O[C@H](C)c1ccccc1Cl (some centres unmarked) [Compound 23] and Cc1noc(-c2ccc(-c3ccc(N4CC[C@H](C(=O)O)C4)cc3)cc2)c1NC(=O)O[C@H](C)c1ccccc1Cl [Compound 135] fall in the same range of EC50: 50 to 500 nM for the first, 50 to 500 nM for the second.

First: Cc1nsc(-c2ccc3cc(C#CC4(C(=O)O)CC4)ccc3c2)c1NC(=O)OCc1ccccc1 [Compound 89]
Second: Cc1nsc(C#Cc2ccc3cc(C4(C(=O)O)CC4)ccc3c2)c1NC(=O)O[C@H](C)c1ccccc1 [Compound 92]
The EC50 of the first is higher: 50 to 500 nM for the first, < 50 nM for the second.

First: Cc1ccccc1COC(=O)Nc1c(C)nsc1-c1ccc(-c2ccc(C3(C(=O)O)CC3)cc2)cc1 [Compound 85]
Second: Cc1nsc(-c2ccc(-c3ccc(C4(C(=O)O)CC4)cc3)cc2)c1NC(=O)OCc1ccccn1 [Compound 72]
The EC50 of the first is lower: 50 to 500 nM for the first, > 500 nM for the second.

Cc1nsc(C#Cc2ccc3cc(C4(C(=O)O)CC4)ccc3c2)c1NC(=O)O[C@H](C)c1ccccc1Cl [Compound 93] and Cc1cc(-c2ccc(C3(C(=O)O)CC3)cc2)c(F)cc1-c1snc(C)c1NC(=O)O[C@H](C)c1ccccc1Cl [Compound 124] cannot be ordered by EC50: < 50 nM for the first, < 50 nM for the second.

Compared with Cc1nsc(-c2ccc(-c3ccc(C4(C(=O)O)CC4)cc3)cc2)c1NC(=O)O[C@H](C)c1cccc(F)c1 [Compound 194], Cc1nsc(-c2ccc(-c3ccc(C4(C(=O)O)CCCCC4)cc3)cc2)c1NC(=O)O[C@H](C)c1ccccc1 [Compound 126] is higher in EC50: < 50 nM for the first, 50 to 500 nM for the second.

Cc1noc(-c2ccc(-c3ccc(C4(C(=O)O)CN(C)C4)cc3)cc2)c1NC(=O)O[C@H](C)c1ccccc1Cl [Compound 39] and Cc1noc(-c2ccc(-c3ccc(N4CCC[C@@H](C(=O)O)C4)cc3)cc2)c1NC(=O)O[C@H](C)c1ccccc1Cl [Compound 138] fall in the same range of EC50: 50 to 500 nM for the first, 50 to 500 nM for the second.

First: C[C@@H](OC(=O)Nc1oc2ccccc2c1-c1ccc(-c2ccc(C3(C(=O)O)CC3)cc2)cc1)c1ccccc1 [Compound 208]
Second: C[C@@H](OC(=O)Nc1c(Cl)nsc1-c1ccc(-c2ccc(C3(C(=O)O)CC3)cc2)cc1)c1ccccc1 [Compound 112]
The EC50 of the first is higher: > 500 nM for the first, < 50 nM for the second.

Compared with Cc1noc(-c2nc3cc4oc(C5(C(=O)O)CC5)nc4cc3o2)c1NC(=O)O[C@H](C)c1ccccc1 [Compound 178], C[C@@H](OC(=O)Nc1c(-c2c(F)cc(-c3ccc(C4(C(=O)O)CC4)cc3)cc2F)cnn1C)c1ccccc1 [Compound 205] is lower in EC50: 50 to 500 nM for the first, < 50 nM for the second. The second is the more potent here.

Going from C[C@@H](OC(=O)Nc1c(-c2ccc(-c3ccc(C4(C(=O)O)CC4)cc3)cc2F)cnn1C)c1ccccc1 [Compound 204] to Cc1nsc(-c2ccc(-c3ccc(C4(C(=O)OC5OC(C(=O)O)C(O)C(O)C5O)CC4)cc3)cc2)c1NC(=O)O[C@H](C)c1ccccc1 (some centres unmarked) [Compound 238], the EC50 rises from < 50 nM to > 500 nM. The first is the more potent here.

With Cc1nsc(-c2ccc(-c3ccc(C4(C(=O)O)CC4)cc3)cc2)c1NC(=O)O[C@@H](C)C1=C(Cl)CCCC1 [Compound 219] the EC50 was 50 to 500 nM.
